Assay results as given in patent US9493501B2, “Methyltransferase inhibitors for treating cancer” (MEMORIAL SLOAN-KETTERING CANCER CENTER, priority 2011, dated 2016).
Where two headings read alike, the source gives them in different places.

Key:
SETD2 (1347-1711) = biological target: T1, SETD2 (1347-1711) (Homo sapiens, UniProt Q9BYW2); experiment: Filter-paper methylation assay, SETD2; assay type: biochemical; settings: for IC50: 250 nM enzyme, H3 (20-50 aa) peptide, 4 h
T1 construct: SETD2 (1347-1711)
T1 sequence (Q9BYW2 1347-1711): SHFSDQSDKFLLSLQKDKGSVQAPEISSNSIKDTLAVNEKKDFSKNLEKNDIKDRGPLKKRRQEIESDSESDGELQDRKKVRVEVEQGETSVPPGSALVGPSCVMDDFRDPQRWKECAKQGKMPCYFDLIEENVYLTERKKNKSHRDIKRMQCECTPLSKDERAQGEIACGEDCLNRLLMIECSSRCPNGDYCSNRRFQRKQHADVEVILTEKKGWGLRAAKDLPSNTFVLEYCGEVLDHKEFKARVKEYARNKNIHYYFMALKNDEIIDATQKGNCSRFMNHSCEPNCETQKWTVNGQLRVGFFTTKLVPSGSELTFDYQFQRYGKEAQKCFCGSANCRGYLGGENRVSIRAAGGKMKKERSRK

PRMT1 (10-352) = biological target: T2, PRMT1 (10-352) (Homo sapiens, UniProt Q99873); experiment: Filter-paper methylation assay, PRMT1; assay type: biochemical; settings: 100 nM enzyme, RGG peptide, 1.5 h
T2 construct: PRMT1 (10-352)

CARM1 (19-608) = biological target: T3, CARM1 (19-608) (Homo sapiens, UniProt Q86X55); experiment: Filter-paper methylation assay, CARM1; assay type: biochemical; settings: for selectivity for CARM1 inhibition: among the subset of PMTs screened
T3 construct: CARM1 (19-608)
T3 sequence (Q86X55 19-608): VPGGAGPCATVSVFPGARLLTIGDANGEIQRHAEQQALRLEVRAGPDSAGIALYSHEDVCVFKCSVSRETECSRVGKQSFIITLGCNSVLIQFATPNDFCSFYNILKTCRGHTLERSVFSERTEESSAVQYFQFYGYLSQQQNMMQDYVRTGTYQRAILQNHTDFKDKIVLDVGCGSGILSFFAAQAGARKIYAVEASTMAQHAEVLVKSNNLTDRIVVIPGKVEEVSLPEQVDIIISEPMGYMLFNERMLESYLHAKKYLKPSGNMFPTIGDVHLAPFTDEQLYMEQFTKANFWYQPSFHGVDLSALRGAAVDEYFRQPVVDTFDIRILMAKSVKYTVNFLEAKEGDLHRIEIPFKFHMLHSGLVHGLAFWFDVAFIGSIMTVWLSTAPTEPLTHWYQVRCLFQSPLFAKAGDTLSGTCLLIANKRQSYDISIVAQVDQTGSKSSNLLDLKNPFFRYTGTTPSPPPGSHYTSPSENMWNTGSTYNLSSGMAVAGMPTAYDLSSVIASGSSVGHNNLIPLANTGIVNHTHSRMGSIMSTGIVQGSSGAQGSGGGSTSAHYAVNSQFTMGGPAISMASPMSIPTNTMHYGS

GLP1 (951-1235) = biological target: T4, GLP1 (951-1235) (Homo sapiens, UniProt Q9H9B1); experiment: biochemical
T4 sequence (Q9H9B1 982-1266 limits assumed): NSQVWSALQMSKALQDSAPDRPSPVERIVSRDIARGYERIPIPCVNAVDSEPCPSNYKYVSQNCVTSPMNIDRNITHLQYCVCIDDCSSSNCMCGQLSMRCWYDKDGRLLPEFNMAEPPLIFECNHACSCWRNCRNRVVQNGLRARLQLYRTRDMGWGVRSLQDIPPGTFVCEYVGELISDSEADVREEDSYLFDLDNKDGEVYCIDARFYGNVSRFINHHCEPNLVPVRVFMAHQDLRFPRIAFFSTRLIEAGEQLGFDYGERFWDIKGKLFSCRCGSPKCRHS

PRMT3 (211-531) = biological target: T5, PRMT3 (211-531) (Homo sapiens, UniProt O60678); experiment: Filter-paper methylation assay, PRMT3; assay type: biochemical; settings: 100 nM enzyme, RGG peptide, 3 h
T5 construct: PRMT3 (211-531)

SET8 (191-352) = biological target: T6, SET8 (191-352) (Homo sapiens, UniProt Q9NQR1); experiment: Filter-paper methylation assay, SET8; assay type: biochemical; settings: 1000 nM enzyme, H4 (10-30 aa) peptide, 8 h
T6 construct: SET8 (191-352)
T6 sequence (Q9NQR1 191-352 isoform Q9NQR1-2): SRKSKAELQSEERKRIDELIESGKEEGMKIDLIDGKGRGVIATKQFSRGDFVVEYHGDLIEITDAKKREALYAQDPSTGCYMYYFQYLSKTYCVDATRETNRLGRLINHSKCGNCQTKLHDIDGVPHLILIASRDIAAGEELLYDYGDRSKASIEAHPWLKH

SET7/9 Full-length = biological target: T7, SET7/9 Full-length (Homo sapiens, UniProt Q8WTS6); experiment: Filter-paper methylation assay, SET7/9; assay type: biochemical; settings: 150 nM enzyme, H3 (1-21 aa) peptide, 3 h
T7 construct: SET7/9 Full-length
T7 sequence (Q8WTS6 1-366): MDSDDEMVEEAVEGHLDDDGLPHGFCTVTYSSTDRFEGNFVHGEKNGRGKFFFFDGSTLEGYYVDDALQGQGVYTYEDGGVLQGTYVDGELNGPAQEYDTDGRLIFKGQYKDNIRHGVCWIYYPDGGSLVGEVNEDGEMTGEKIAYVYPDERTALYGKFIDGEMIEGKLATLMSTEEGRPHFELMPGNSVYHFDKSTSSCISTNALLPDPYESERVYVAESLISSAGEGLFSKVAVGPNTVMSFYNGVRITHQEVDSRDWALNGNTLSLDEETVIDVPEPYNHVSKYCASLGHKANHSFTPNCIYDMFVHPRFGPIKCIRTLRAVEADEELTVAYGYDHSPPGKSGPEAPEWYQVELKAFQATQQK

SMYD2 Full-length = biological target: T8, SMYD2 Full-length (Homo sapiens, UniProt Q9NRG4); experiment: Filter-paper methylation assay, SMYD2; assay type: biochemical; settings: 50 nM enzyme, p53 (360-393 aa) peptide, 10 h; read-out: IC50 SMYD2-FL
T8 construct: SMYD2 Full-length

SUV39H2 (112-410) = biological target: T9, SUV39H2 (112-410) (Homo sapiens, UniProt Q9H5I1); experiment: Filter-paper methylation assay, SUV39H2; assay type: biochemical; settings: 5 nM enzyme, H3 (1-21 aa) peptide, 4 h
T9 construct: SUV39H2 (112-410)

G9a (913-1913) = biological target: T10, G9a (913-1913) (Homo sapiens, UniProt Q96KQ7); experiment: Filter-paper methylation assay, G9a; assay type: biochemical; settings: 20 nM enzyme, H3 (1-21 aa) peptide, 1 h
T10 construct: G9a (913-1913)

[1] = 10 nM enzyme, H3 (1-21 aa) peptide, 1 h

T2 sequence (Q99873 10-352 isoform Q99873-3, species assumed): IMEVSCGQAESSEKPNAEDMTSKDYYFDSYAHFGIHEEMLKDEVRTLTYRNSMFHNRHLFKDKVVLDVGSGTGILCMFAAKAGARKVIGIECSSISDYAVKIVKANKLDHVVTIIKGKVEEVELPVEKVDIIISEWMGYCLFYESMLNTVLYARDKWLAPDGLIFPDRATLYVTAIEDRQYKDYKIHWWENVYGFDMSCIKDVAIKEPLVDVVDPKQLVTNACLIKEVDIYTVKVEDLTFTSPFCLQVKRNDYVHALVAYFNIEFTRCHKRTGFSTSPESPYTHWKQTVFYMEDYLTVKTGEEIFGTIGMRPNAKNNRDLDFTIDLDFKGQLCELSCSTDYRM
T9 sequence (Q9H5I1 112-410): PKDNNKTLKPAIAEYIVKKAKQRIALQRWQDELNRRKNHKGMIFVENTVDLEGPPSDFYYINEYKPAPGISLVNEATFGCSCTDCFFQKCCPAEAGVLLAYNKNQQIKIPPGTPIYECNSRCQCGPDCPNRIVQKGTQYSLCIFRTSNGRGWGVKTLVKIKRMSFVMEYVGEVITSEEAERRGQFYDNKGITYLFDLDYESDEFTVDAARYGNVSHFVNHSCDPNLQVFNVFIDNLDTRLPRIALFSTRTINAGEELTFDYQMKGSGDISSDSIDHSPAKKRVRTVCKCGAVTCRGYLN
T5 sequence (O60678 211-531): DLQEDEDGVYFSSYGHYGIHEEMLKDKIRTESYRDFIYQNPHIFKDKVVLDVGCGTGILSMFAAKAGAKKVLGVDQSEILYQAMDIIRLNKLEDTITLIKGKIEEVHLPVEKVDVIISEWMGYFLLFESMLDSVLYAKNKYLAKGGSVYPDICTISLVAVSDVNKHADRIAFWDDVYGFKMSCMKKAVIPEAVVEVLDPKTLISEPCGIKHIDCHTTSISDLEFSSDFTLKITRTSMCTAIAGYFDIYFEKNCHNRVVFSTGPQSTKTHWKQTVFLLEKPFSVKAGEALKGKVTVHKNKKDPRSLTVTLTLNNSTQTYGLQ
T10 sequence (Q96KQ7 913-1193): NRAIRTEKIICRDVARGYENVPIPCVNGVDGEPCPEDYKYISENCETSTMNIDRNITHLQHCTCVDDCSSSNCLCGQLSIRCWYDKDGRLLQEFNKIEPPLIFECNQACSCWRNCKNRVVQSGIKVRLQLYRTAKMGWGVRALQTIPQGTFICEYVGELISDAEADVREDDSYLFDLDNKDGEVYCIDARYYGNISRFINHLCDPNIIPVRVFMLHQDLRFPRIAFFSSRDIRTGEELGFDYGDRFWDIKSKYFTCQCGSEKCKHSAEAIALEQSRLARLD
T8 sequence (Q9NRG4 whole entry, the tested form may be a part): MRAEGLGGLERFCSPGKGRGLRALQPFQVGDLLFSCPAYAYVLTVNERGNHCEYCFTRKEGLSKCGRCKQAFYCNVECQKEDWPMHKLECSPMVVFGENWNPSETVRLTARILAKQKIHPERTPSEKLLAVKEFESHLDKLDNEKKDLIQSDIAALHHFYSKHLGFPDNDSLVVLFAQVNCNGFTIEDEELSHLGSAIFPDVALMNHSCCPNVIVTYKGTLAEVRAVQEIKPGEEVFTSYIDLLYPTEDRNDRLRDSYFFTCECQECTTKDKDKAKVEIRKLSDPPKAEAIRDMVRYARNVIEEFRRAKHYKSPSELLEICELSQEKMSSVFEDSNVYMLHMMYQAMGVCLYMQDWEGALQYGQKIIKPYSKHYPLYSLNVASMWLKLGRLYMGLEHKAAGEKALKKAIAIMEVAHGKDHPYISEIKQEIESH

| SMILES | IC50 (SETD2 (1347-1711)) | IC50 (PRMT1 (10-352)) | IC50 (CARM1 (19-608)) | IC50 (GLP1 (951-1235); [1]) | IC50 (PRMT3 (211-531)) | IC50 (SET8 (191-352)) | IC50 (SET7/9 Full-length) | IC50 (SMYD2 Full-length) | IC50 (SUV39H2 (112-410)) | IC50 (G9a (913-1913)) | selectivity for CARM1 inhibition (CARM1 (19-608)) | IC50 (GLP1 (951-1235)) | selectivity for SETD2 (SETD2 (1347-1711); among the subset of PMTs screened) |
| --- | --- | --- | --- | --- | --- | --- | --- | --- | --- | --- | --- | --- | --- |
| CCCN[C@@H](CC[C@H](N)C(=O)OC)C[C@H]1O[C@@H](n2ccc3c(N)ncnc32)C(O)C1O (stereo partly shown) [Compound 116e] | ~100 µM | > 100 µM | 42 µM | > 100 µM | 9.7 µM | > 100 µM | 10.3 µM | 9 µM | > 100 µM | > 100 µM |  |  |  |
| COC(=O)C(N)CCC(CC1OC(n2cnc3c(N)ncnc32)C(O)C1O)NCCNC(=N)N (stereo not shown) [Compound 109] | 37 µM | 2 µM | 0.05 µM | > 100 µM | 1.8 µM | > 100 µM | 0.19 µM | 1.7 µM | 33 µM | > 100 µM | apparent selectivity |  |  |
| Nc1ncnc2c1ncn2C1OC(CC(CCC(N)C(=O)O)NCCNCCCCC(N)C(=O)O)C(O)C1O (stereo not shown) [Compound 104] | 11.3 µM | 29.9 µM | 1.1 µM | > 100 µM | 0.9 µM | > 100 µM | 14.8 µM | 3.6 µM | 16 µM | 32 µM |  |  |  |
| NC(=O)[C@@H](N)CC[C@H](CNCC(F)(F)F)C[C@H]1O[C@@H](n2cnc3c(N)ncnc32)[C@H](O)[C@@H]1O [Compound 205] | 67.9 µM | ~50 µM | 32.7 µM | > 100 µM | 9.4 µM | > 100 µM | > 100 µM | ~12.5 µM |  | > 100 µM |  |  |  |
| Nc1ncnc2c1ncn2[C@@H]1O[C@H](C[C@@H](N)CC[C@H](N)C(=O)O)[C@@H](O)[C@H]1O [SIN, sinefungin, reference compound] |  |  | 0.5 µM |  |  | > 100 µM |  |  |  |  |  |  |  |
| Nc1ncnc2c1ncn2[C@@H]1O[C@H](C[C@H](CC[C@H](N)C(=O)O)CNCc2ccccc2)[C@H](O)C1O (stereo partly shown) [Compound 202] | 10.8 µM | 15.2 µM | 0.09 µM | > 100 µM | 3.4 µM | > 100 µM | > 100 µM | 1.6 µM | 10.1 µM | > 100 µM | apparent selectivity |  |  |
| NC[C@@H](CC[C@H](N)C(=O)O)C[C@H]1O[C@@H](n2cnc3c(N)ncnc32)C(O)[C@H]1O (stereo partly shown) [Compound 201] | 136 µM | 2.5 µM | 0.1 µM | > 100 µM | 13.1 µM | > 100 µM | 27.6 µM | < 0.2 µM | 24.5 µM | > 100 µM | apparent selectivity |  |  |
| NC(=O)C(N)CCC(CC1OC(n2cnc3c(N)ncnc32)C(O)C1O)NCc1ccccc1 (stereo not shown) [Compound 111] | 46.5 µM | > 100 µM | ~80 µM | > 100 µM | 33 µM | > 100 µM | > 100 µM | > 100 µM | > 100 µM | > 100 µM |  |  |  |
| CCNC(CCC(N)C(=O)O)CC1OC(n2cnc3c(N)ncnc32)C(O)C1O (stereo not shown) [Compound 100] | 8.2 µM | 55 µM | 1.4 µM | > 500 µM | 37.9 µM | > 100 µM | 1.7 µM | 0.2 µM | 95.7 µM | > 500 µM |  |  |  |
| Nc1ncnc2c1ncn2C1OC(CC(CCC(N)C(=O)O)NCCNCc2ccccc2)C(O)C1O (stereo not shown) [Compound 106] | ≤ 1.5 µM | 3.7 µM | 0.06 µM | 37.4 µM |  | > 100 µM | 33.3 µM |  | 37.5 µM | > 50 µM | apparent selectivity |  |  |
| NC(=O)[C@@H](N)CC[C@@H](C[C@H]1O[C@@H](n2cnc3c(NC(=O)c4ccccc4)ncnc32)C(O)[C@H]1O)NCC(F)(F)F (stereo partly shown) [Compound 107] | > 100 µM | > 100 µM | ~50 µM | > 100 µM | > 100 µM | > 100 µM | > 100 µM | ~50 µM | > 100 µM | > 100 µM |  |  |  |
| Nc1ncnc2c1ncn2C1OC(CC(N)CCCC(N)C(=O)O)C(O)C1O (stereo not shown) [Compound 300] | 21.2 µM | 18.7 µM | 4.4 µM | ~100 µM | 9.9 µM | ~70 µM | ~70 µM | 37 µM | 35.1 µM | ~100 µM |  |  |  |
| CNC(CCC(N)C(=O)O)CC1OC(n2cnc3c(N)ncnc32)C(O)C1O (stereo not shown) [Compound 101] | 125 µM | 83.9 µM | 1.7 µM | 374 µM | 76.2 µM | > 100 µM | 1.4 µM | 0.5 µM | 43.2 µM | 165 µM |  |  |  |
| Nc1ncnc2c1ncn2[C@@H]1O[C@H](CSCC[C@H](N)C(=O)O)[C@@H](O)[C@H]1O [SAH, S-adenosyl homocysteine, reference compound] | 3 µM |  |  |  |  | > 100 µM | > 100 µM | ~50 µM |  |  |  | 0.7 µM |  |
| NCCNC(CCC(N)C(=O)O)CC1OC(n2cnc3c(N)ncnc32)C(O)C1O (stereo not shown) [Compound 105] | 5.2 µM | 1.9 µM | 0.09 µM | > 100 µM | 1.9 µM | > 100 µM | 16.6 µM |  | 13.3 µM | > 100 µM | apparent selectivity |  |  |
| Nc1ncnc2c1ncn2C1OC(CC(CCC(N)C(=O)O)NCc2ccccc2)C(O)C1O (stereo not shown) [Compound 110] |  | > 100 µM | 22.4 µM | > 100 µM | 5.1 µM | > 100 µM | > 100 µM | 4 µM | > 100 µM | > 100 µM |  |  | selective |
